Non-standard residues stand in square brackets, D forms with d. Residues, ends and D or L forms follow the SMILES beside them. *: point of attachment. dPhe(4-NHCONH2) = NC(=O)Nc1ccc(C[C@@H](N)C(=O)O)cc1; Dihydroorotyl(S) = O=C1C[C@@H](C(=O)*)NC(=O)N1; dPhe(4-Cl) = N[C@H](Cc1ccc(Cl)cc1)C(=O)O; Phe(4-NH2) = Nc1ccc(C[C@H](N)C(=O)O)cc1; d2Nal = N[C@H](Cc1ccc2ccccc2c1)C(=O)O; Lys(iPr) = CC(C)NCCCC[C@H](N)C(=O)O; d3Pal = N[C@H](Cc1cccnc1)C(=O)O
Tested on: patient with systemic sclerosis
Assay: Treatment of systemic sclerosis
Type: in vivo, human
Conditions: SSc patient
Source text: • person, diagnosed with systemic sclerosis • Fulfilled the 2013 EULAR/ACR classification criteria for systemic sclerosisl. • Diagnosis based upon Raynauds phenomenon, positive ANA, high titre anti-Scl 70 antibodies, marked skin changes typical of scleroderma, and esophageal dysmotility. • Previously tried Cyclophosphamide and Mycophenolate Mofetil. • Progressive disease and worsening scleroderma skin features, despite therapy. • Rapid progressive cardiac disease, verified by biopsy.
Experimental Treatment • 5th December 2014 received first dose of Degarelix 240 mg sc. • 9th January 2015 received second dose of Degarelix 80 mg sc.
[…] They are important factors in patients' evaluations of quality of life2. Their precise objective evaluation can be included in randomized controlled trials3. Their pathogenesis is unclear. Histologically, there is a plug-like hyperkeratosis with parakeratosis, homogenized collagen fibers and perivascular mononuclear cell infiltration4.

## CC(=O)N[C@H](Cc1ccc2ccccc2c1)C(=O)N[C@H](Cc1ccc(Cl)cc1)C(=O)N[C@H](Cc1cccnc1)C(=O)N[C@@H](CO)C(=O)N[C@@H](Cc1ccc(NC(=O)[C@@H]2CC(=O)NC(=O)N2)cc1)C(=O)N[C@H](Cc1ccc(NC(N)=O)cc1)C(=O)N[C@@H](CC(C)C)C(=O)N[C@@H](CCCCNC(C)C)C(=O)N1CCC[C@H]1C(=O)N[C@H](C)C(N)=O [Degarelix] (Ac-[d2Nal][dPhe(4-Cl)][d3Pal]S[Phe(4-NH2)](Dihydroorotyl(S))[dPhe(4-NHCONH2)]L[Lys(iPr)]P[dA]-NH2)
5 weeks
  Digital tip ulcers/pitting scars: 2
  Modified Rodnan Skin Score: 40
  Sleep: 5 hrs/night
  VAS Fatigue: 75
  VAS Fingertip pain/pitting scars/ulcers: 40
  VAS Gastrointestinal Symptoms: 80
  VAS Global: 40
  VAS Lung/dyspnea: 80
  VAS Pain: 10
  VAS Raynauds/vascular: 40
6 weeks
  Digital tip ulcers/pitting scars: 2
  Modified Rodnan Skin Score: 40
  Sleep: 5.5 hrs/night
  VAS Fatigue: 60
  VAS Fingertip pain/pitting scars/ulcers: 30
  VAS Gastrointestinal Symptoms: 60
  VAS Global: 40
  VAS Lung/dyspnea: 50
  VAS Pain: 10
  VAS Raynauds/vascular: 30
After 6 weeks of treatment (FIG. 12)
  fingertip pain score (0-100 mm): 30
Baseline 5.12.14
  Digital tip ulcers/pitting scars: 5
  HAQ DI: 1.88
  Modified Rodnan Skin Score: 42
  Sleep: 2 hrs/night
  VAS Fatigue: 100
  VAS Fingertip pain/pitting scars/ulcers: 100
  VAS Gastrointestinal Symptoms: 100
  VAS Global: 100
  VAS Lung/dyspnea: 100
  VAS Pain: 100
  VAS Raynauds/vascular: 100
Baseline prior to treatment (FIG. 11)
  fingertip pain score (0-100 mm): 100 mm

— patent US10821152B2, “Methods, agents and compositions for treatment of inflammatory conditions” (Betanien Hospital, priority 2014, dated 2020)
